Assay results reported in US20220016205A1, “METHODS OF OVERCOMING RESISTANCE TO IMMUNE CHECKPOINT INHIBITORS” (Board of Regents, The University of Texas System, priority 2018, published 2022).

Legend:
peritoneal macrophages [1] = test: qPCR in peritoneal macrophages co-cultured with 344SQR cells (transwell) with follistatin or K02288; type: cell-based, mouse; conditions: 344SQR co-culture plus K02288 compared with 344SQR only (FIG. 3F)
RAW 264.7 cells [2] = test: qPCR in RAW 264.7 cells co-cultured with 344SQR cells (transwell) with follistatin or K02288; type: cell-based, murine; conditions: 344SQR co-culture plus K02288 compared with 344SQR only (FIG. 3E)
Source text: (§1) Quantitative polymerase chain reaction (qPCR). Total RNA was isolated from cells and tumors with Triazol (Life Technologies) according to the manufacturer's protocol. For studies of BMP7, p38α, IL-1α, IL-1β, TNF-α, RANTES, IL-2, and IFN-γ expression, mRNA was retrotranscribed with the iScript™ gDNA Clear cDNA Synthesis Kit (BioRad) and analyzed by qPCR using SYBR Green (Life Technologies) with specific primers according to the manufacturer's protocol. The comparative Ct method was used to calculate the relative abundance of mRNAs compared with ACTB (beta-actin) expression for cancer cells or CD45 expression for immune cells.
Co-culture experiments and treatments. Viable cells were counted with a hemocytometer (0.4% Trypan blue solution) and diluted to 40,000 cells per well in 24-wells plates. Cells from 344SQP, 344SQR, 344SQ ctrl, or 344SQ-shBMP7 tumors were seeded at the top inserts (24-mm Transwell with 0.4-μm pore polycarbonate membrane insert, Sigma-Aldrich), and RAW 264.7 or CD4^+ T cells were seeded at the bottom of the transwell system. […] RNA was then isolated from RAW 264.7 or CD4^+ T cells and analyzed for p38α, IL-1α, IL-1β, TNF-α, RANTES, IL-2 and IFN-γ expression with qPCR. […]

T lymphocytes = conditions: Matsuda et al., 1998; cited from earlier work
T-cell = conditions: Crawley et al., 1997; cited from earlier work
344SQR shBMP7 tumors = test: Tumor growth, survival and TIL flow cytometry of mice with 344SQR shBMP7 (BMP7-knockdown) tumors treated with checkpoint antibodies; type: in vivo, 129Sv/Ev mice; conditions: antibody 10 mg/kg twice a week for 2 weeks in combination with BMP7 knockdown, compared with control (FIGS. 5A, 5I, 5J)
Procedure: In vivo studies. All mouse studies were approved by the Institutional Animal Care and Use Committee (IACUC) of The University of Texas MD Anderson Cancer Center before their initiation; animal care was provided according to IACUC standards, and all mice had been bred and were maintained in our own specific pathogen-free mouse colony. For RRBS, RPPA and TILs studies, primary tumors were established by subcutaneous injection of 344SQP or 344SQR cells (0.5×10^6 in 100 μL of sterile phosphate buffered saline [PBS]) into the leg of syngeneic 129Sv/Ev mice (female, 12-16 weeks old). Mice were then given intraperitoneal injections of anti-PD1 or control IgG antibodies (10 mg/kg) (Bio X cell), starting on day 4 after tumor cell inoculation and continuing twice per week for a total of 4 doses. At 24 hours after the last anti-PD1 treatment, tumor tissues were collected for DNA (2 mice/group) and protein isolation (2 or 3 mice/group). For TILs isolation, tumor tissues (3 mice/group) were collected a week after the last treatment with anti-PD1. […] Tumors were measured with calipers three times per week and recorded as tumor volume (in mm^3)=width^2×length/2. […] Mouse survival rates were analyzed by using the Kaplan-Meier method and compared with log-rank tests.
Tissue processing and flow cytometry. […] All samples were analyzed with an LSRII flow cytometer and FlowJo software (version 10.0.7). […]

RAW 264.7 cells [3] = test: p38a silencing with siRNAs in RAW 264.7 cells, qPCR / expression analysis; type: cell-based, murine; conditions: BMP7 treatment of cells treated with siRNAs targeting p38a (FIG. 3K)
Source text: as §1
Transfection siRNA. siRNA targeting p38a (Life Technologies, Cat #4390771) and its respective negative-control negative control (Life Technologies, Cat #4390843) were reverse-transfected into RAW 264.7 macrophages with Lipofectamine 2000 (Life Technologies) to a final concentration of […].

CD4^+ T cells = test: qPCR of p38α, IFN-γ, IL-2 in activated CD4+ T cells treated with BMP7 or BMP7 plus follistatin; type: cell-based, mouse
Source text: as §1
Co-culture experiments and treatments. Viable cells were counted with a hemocytometer (0.4% Trypan blue solution) and diluted to 40,000 cells per well in 24-wells plates. Cells from 344SQP, 344SQR, 344SQ ctrl, or 344SQ-shBMP7 tumors were seeded at the top inserts (24-mm Transwell with 0.4-μm pore polycarbonate membrane insert, Sigma-Aldrich), and RAW 264.7 or CD4^+ T cells were seeded at the bottom of the transwell system. CD4^+ T cells were isolated from splenocytes by using Dynabeads Untouched Mouse CD4 Cells Kit (Thermo Fisher Scientific—Life Technologies, Catalog #11416D) and activated with LEAF purified anti-mouse CD3c antibody (5 μg/mL) and LEAF purified anti-mouse CD28 antibody (1 μg/mL) (Biolegend). […] RNA was then isolated from RAW 264.7 or CD4^+ T cells and analyzed for p38α, IL-1α, IL-1β, TNF-α, RANTES, IL-2 and IFN-γ expression with qPCR.
Next, CD4^+ T cells were co-cultured with 344SQP or 344SQR cells, and 344SQR ctrl or 344SQR shBMP7 cells, and the expression of p38α, IFN-γ, and IL-2 analyzed. […] To confirm that these findings depended on BMP7 and not on some other secreted molecule, CD4^+ T cells were treated with BMP7 with or without follistatin and p38α, IFN-γ, and IL-2 expression evaluated. […]

peritoneal macrophages [4] = test: qPCR of p38α, IL-1α, IL-1β, TNF-α, RANTES in peritoneal macrophages treated with BMP7 or BMP7 plus follistatin; type: cell-based, mouse; conditions: BMP7 compared to untreated control (FIG. 3G)
Source text: as §1
(§2) Co-culture experiments and treatments. Viable cells were counted with a hemocytometer (0.4% Trypan blue solution) and diluted to 40,000 cells per well in 24-wells plates. Cells from 344SQP, 344SQR, 344SQ ctrl, or 344SQ-shBMP7 tumors were seeded at the top inserts (24-mm Transwell with 0.4-μm pore polycarbonate membrane insert, Sigma-Aldrich), and RAW 264.7 or CD4^+ T cells were seeded at the bottom of the transwell system. […] RNA was then isolated from RAW 264.7 or CD4^+ T cells and analyzed for p38α, IL-1α, IL-1β, TNF-α, RANTES, IL-2 and IFN-γ expression with qPCR.

RAW 264.7 cells [5] = test: qPCR of p38α, IL-1α, IL-1β, TNF-α, RANTES in RAW 264.7 cells treated with BMP7 or BMP7 plus follistatin; type: cell-based, murine; conditions: BMP7 compared to untreated control, 24 or 48 hours (FIG. 3G)
Source text: as §1, §2

Molecule: COc1cc(-c2cc(-c3cccc(O)c3)cnc2N)cc(OC)c1OC [K02288, reference compound]
- expression of p38a and p38α-regulated cytokines and chemokines (peritoneal macrophages [1]): lower expression
- expression of p38a and p38α-regulated cytokines and chemokines (RAW 264.7 cells [2]): lower expression

Molecule: C[S+]([O-])c1ccc(-c2nc(-c3ccncc3)c(-c3ccc(F)cc3)[nH]2)cc1 (stereo not shown) [SB203580]
- transcriptional activation of the IL-2 promoter (T lymphocytes): suppressed the transcriptional activation
- T-cell proliferation in response to IL-2 (T-cell): suppressed T-cell proliferation

Molecule: anti-PDL1: anti-PDL1 (Durvalumab, Pharmacy MD Anderson)
- survival (344SQR shBMP7 tumors): increased survival

B1: BMP7: bone morphogenetic protein (BMP)-7, secreted protein of the TGF-β superfamily (R&D Systems, Catalog #5666-BP-010) (protein, UniProt P18075 293-431, looked up)
Bone morphogenetic protein 7: STGSKQRSQNRSKTPKNQEALRMANVAENSSSDQRQACKKHELYVSFRDLGWQDWIIAPEGYAAYYCEGECAFPLNSYMNATNHAIVQTLVHFINPETVPKPCCAPTQLNAISVLYFDDSSNVILKKYRNMVVRACGCH
- expression of TNF-α, IL1-β, and CD206 (RAW 264.7 cells [3]): did not alter
- p38α expression (CD4^+ T cells; effect of BMP7): led to changes
- IFN-γ and IL-2 expression (CD4^+ T cells; effect of BMP7, via p38α): decreased
- expression of p38a and p38α-regulated cytokines and chemokines (peritoneal macrophages [4]): lower expression
- expression of p38a and p38α-regulated cytokines and chemokines (RAW 264.7 cells [5]): lower expression
